What all share (test): relative viability (nuclei count vs DMSO), 5 days (fraction); higher = more cells survive
Compound in the assay “Carboplatin + Foretinib”: C1CC(C1)(C(=O)O)C(=O)O.[NH2-].[NH2-].[Pt+2] [Carboplatin] + COc1cc2c(Oc3ccc(NC(=O)C4(C(=O)Nc5ccc(F)cc5)CC4)cc3F)ccnc2cc1OCCCN1CCOCC1 [Foretinib] (partner 0.25 µM)
The gist of the method: (§1)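 Lung cancer cell lines in 1536-well plates were dosed by pin tool the day after seeding, either with one drug alone or with a fixed anchor-drug dose plus five library-drug doses (not always all listed) in √10 steps. After 5 days, cells were fixed and their nuclei stained in one step (final 0.05% Triton X-100, 1% formaldehyde, 1 ug/ml Hoechst), then counted on 4× images. Relative viability is the nuclei count in treated wells divided by that in vehicle wells. Values are medians of duplicate plates.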

Compound in the assay “MLN4924 + OSI-027”: NS(=O)(=O)OC[C@@H]1C[C@@H](n2ccc3c(N[C@H]4CCc5ccccc54)ncnc32)C[C@@H]1O [MLN4924] + COc1cccc2cc(-c3nc([C@H]4CC[C@H](C(=O)O)CC4)n4ncnc(N)c34)[nH]c12 [OSI-027] (partner 0.5 µM)
The gist of the method:
as §1

Compound in the assay “Carboplatin + Crizotinib”: C1CC(C1)(C(=O)O)C(=O)O.[NH2-].[NH2-].[Pt+2] [Carboplatin] + C[C@@H](Oc1cc(-c2cnn(C3CCNCC3)c2)cnc1N)c1c(Cl)ccc(F)c1Cl [Crizotinib] (partner 1 µM)
The essentials:
as §1

Compound in the assay “GSK126 + Olaparib”: CC[C@H](C)N1C=C(C2=C(C=C(C=C21)C3=CN=C(C=C3)N4CCNCC4)C(=O)NCC5=C(C=C(NC5=O)C)C)C [GSK126] + O=C(c1cc(Cc2n[nH]c(=O)c3ccccc23)ccc1F)N1CCN(C(=O)C2CC2)CC1 [Olaparib] (partner 8 µM)
The gist of the method:
as §1

With UMC-11, the relative viability came to 1.03 with Carboplatin + Foretinib (first compound 0.08 µM); 1.03 with Carboplatin + Foretinib (first compound 0.253 µM); 1.06 with Carboplatin + Foretinib (first compound 0.8 µM); 0.941 with Carboplatin + Foretinib (first compound 2.53 µM); 0.718 in the assay with Carboplatin + Foretinib (first compound 8 µM); 0.429 with MLN4924 + OSI-027 (first compound 0.04 µM). In addition, the relative viability with MLN4924 + OSI-027 (first compound 0.1265 µM) was determined as 0.315; with MLN4924 + OSI-027 (first compound 0.4 µM), 0.271; with MLN4924 + OSI-027 (first compound 1.265 µM), 0.168; with MLN4924 + OSI-027 (first compound 4 µM) it was 0.179; in the assay with Carboplatin + Crizotinib (first compound 0.08 µM), 0.721; in the assay with Carboplatin + Crizotinib (first compound 0.253 µM) it was 0.652. Also, the relative viability worked out at 0.515 with Carboplatin + Crizotinib (first compound 0.8 µM); 0.484 in the assay with Carboplatin + Crizotinib (first compound 2.53 µM); 0.301 with Carboplatin + Crizotinib (first compound 8 µM); 0.345 with GSK126 + Olaparib (first compound 0.08 µM); 0.364 with GSK126 + Olaparib (first compound 0.253 µM); 0.394 with GSK126 + Olaparib (first compound 0.8 µM). In addition, the results for the relative viability with GSK126 + Olaparib (first compound 2.53 µM) and in the assay with GSK126 + Olaparib (first compound 8 µM) were 0.376 and 0.361, respectively.
